Data as given in patent publication US20100261219A1, “TEST METHOD OF BIOAVAILABILITY AND BIOEQUIVALENCE FOR XENOBIOTICS USING GENETIC PROFILING” (priority 2008, published 2010).
Read-outs that look alike come from different tables or passages of the source.

Legend:
[1] = in vivo; cited from earlier work

Row | SMILES | t1/2 [1] [days] | Concentration of risperidone in blood plasma: influence of genotype (genotype of CYP2D6*10) | Concentration of risperidone in blood plasma (participants with mutant type, 48 hours after dosing) | Concentration of risperidone in blood plasma (participants with only wild type, 24 hours after dosing) | Concentration of risperidone in blood plasma (wild type participants compared to heterozygous or mutant type (FIG. 7-9))
1 | CCN(CC)CCCC(C)Nc1ccnc2cc(Cl)ccc12 (stereo not shown) [Chloroquine] | 41 |  |  |  | 
2 | Cc1nc2n(c(=O)c1CCN1CCC(c3noc4cc(F)ccc34)CC1)CCCC2 [risperidone, Risperidone] |  | significantly varied | capable of being measured | reduced below a measurable level | considerably low
3 | CC/C(=C(\c1ccccc1)c1ccc(OCCNC)cc1)c1ccccc1 [demethyltamoxifen] | 11 |  |  |  | 
4 | CC/C(=C(\c1ccccc1)c1ccc(OCCN(C)C)cc1)c1ccccc1 [Tamoxifen] | 8 |  |  |  | 
